Source: patent US8119563B2, “N-substituted azacycles” (FMC Corporation, priority 2003, dated 2012)

Test system: tobacco budworm (Heliothis virescens [Fabricius])
Assay: surface-treated diet test, insecticidal activity against tobacco budworm
Format: in vivo
Settings: 0.25 millimoles of candidate insecticide on the surface of the diet, second instar larvae, five-day exposure; for Percent Mortality: compared to total number of insects infested; for Percent Growth Inhibition: inhibition of insect weight relative to untreated controls
Method in brief: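 Second-instar larvae (~5 mg) were held five days at 25° C and 60% RH on artificial diet whose surface carried dried compound (0.25 millimolar standard rate; DMSO serial dilutions for rate series, six replicates each). Readouts: mortality and weight inhibition relative to DMSO-treated controls.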

COc1cc(CN2CCC(O)(C(c3ccc(OC(F)(F)F)cc3)c3ccc(OC(F)(F)F)cc3)CC2)ccc1Oc1ccccn1 [Compound 447]
Percent Mortality: 100%
Percent Growth Inhibition: 100%

OCC1(C(c2ccc(C(F)(F)F)cc2)c2ccc(C(F)(F)F)cc2)CCN(Cc2ccc(Oc3ncccn3)cc2)CC1 [Compound 448]
Percent Mortality: 0%
Percent Growth Inhibition: 96%

[N-]=[N+]=NCC1(C(c2ccc(C(F)(F)F)cc2)c2ccc(C(F)(F)F)cc2)CCN(Cc2ccc(OCC3CC3)cc2)CC1 [Compound 449]
Percent Mortality: 0%
Percent Growth Inhibition: 78%

NCC1(C(c2ccc(C(F)(F)F)cc2)c2ccc(C(F)(F)F)cc2)CCN(Cc2ccc(OCC3CC3)cc2)CC1 [Compound 450]
Percent Mortality: 50%
Percent Growth Inhibition: 100%

CC(=O)NCC1(C(c2ccc(C(F)(F)F)cc2)c2ccc(C(F)(F)F)cc2)CCN(Cc2ccc(Oc3ncccn3)cc2)CC1 [Compound 451]
Percent Mortality: 0%
Percent Growth Inhibition: 100%

CC(=O)OCC1(C(c2ccc(C(F)(F)F)cc2)c2ccc(C(F)(F)F)cc2)CCN(Cc2ccc(Oc3ncccn3)cc2)CC1 [Compound 452]
Percent Mortality: 0%
Percent Growth Inhibition: 100%

CCON=Cc1ccc(C[N+]2([O-])CCC(O)(C(c3ccc(OC(F)(F)F)cc3)c3ccc(Cl)cc3Cl)CC2)cc1 (stereo not shown) [Compound 453]
Percent Mortality: 100%
Percent Growth Inhibition: 100%

[O-][N+]1(Cc2ccc(Oc3ccccn3)cc2)CCC(O)(C(c2ccc(OC(F)(F)F)cc2)c2ccc(Cl)cc2Cl)CC1 (stereo not shown) [Compound 454]
Percent Mortality: 100%
Percent Growth Inhibition: 100%

[O-][N+]1(Cc2ccc(Oc3ccccn3)cc2)CCC(O)(C(c2ccc(OC(F)(F)F)cc2)c2ccc(Cl)c(Cl)c2)CC1 (stereo not shown) [Compound 455]
Percent Mortality: 100%
Percent Growth Inhibition: 100%

[O-][N+]1(Cc2ccc(Oc3ccccn3)cc2)CCC(O)(C(c2ccc(OC(F)(F)F)cc2)c2cccc(Cl)c2Cl)CC1 (stereo not shown) [Compound 456]
Percent Mortality: 100%
Percent Growth Inhibition: 100%

[O-][N+]1(Cc2ccc(Oc3ccccn3)cc2)CCC(O)(C(c2ccc(OC(F)(F)F)cc2)c2cc(Cl)cc(Cl)c2)CC1 (stereo not shown) [Compound 457]
Percent Mortality: 100%
Percent Growth Inhibition: 100%

[O-][N+]1(Cc2ccc(Oc3ccccn3)cc2)CCC(O)(C(c2ccc(OC(F)(F)F)cc2)c2cccc(Cl)c2)CC1 (stereo not shown) [Compound 458]
Percent Mortality: 100%
Percent Growth Inhibition: 100%

[O-][N+]1(Cc2ccc(Oc3ccccn3)cc2)CCC(O)(C(c2ccc(OC(F)(F)F)cc2)c2ccccc2Cl)CC1 (stereo not shown) [Compound 459]
Percent Mortality: 100%
Percent Growth Inhibition: 100%

[O-][N+]1(Cc2ccc(Oc3ccccn3)cc2)CCC(O)(C(c2ccc(OC(F)(F)F)cc2)c2cc(Cl)ccc2Cl)CC1 (stereo not shown) [Compound 460]
Percent Mortality: 100%
Percent Growth Inhibition: 100%

Cc1cc(Cl)ccc1C(c1ccc(OC(F)(F)F)cc1)C1(O)CC[N+]([O-])(Cc2ccc(Oc3ccccn3)cc2)CC1 (stereo not shown) [Compound 461]
Percent Mortality: 100%
Percent Growth Inhibition: 100%

Cc1cc(C(c2ccc(OC(F)(F)F)cc2)C2(O)CC[N+]([O-])(Cc3ccc(Oc4ccccn4)cc3)CC2)ccc1Cl (stereo not shown) [Compound 462]
Percent Mortality: 100%
Percent Growth Inhibition: 100%

[O-][N+]1(Cc2ccc(Oc3ccccn3)cc2)CCC(O)(C(c2ccc(OC(F)(F)F)cc2)c2ccc(Cl)cc2F)CC1 (stereo not shown) [Compound 463]
Percent Mortality: 100%
Percent Growth Inhibition: 100%

[O-][N+]1(Cc2ccc(Oc3ccccn3)cc2)CCC(O)(C(c2ccc3c(c2)OC(F)(F)O3)c2ccc3c(c2)OC(F)(F)O3)CC1 (stereo not shown) [Compound 464]
Percent Mortality: 100%
Percent Growth Inhibition: 100%

COc1cc(C[N+]2([O-])CCC(O)(C(c3ccc(OC(F)(F)F)cc3)c3ccc(OC(F)(F)F)cc3)CC2)ccc1Oc1ccccn1 (stereo not shown) [Compound 465]
Percent Mortality: 100%
Percent Growth Inhibition: 100%

CC(=O)NCC1(C(c2ccc(C(F)(F)F)cc2)c2ccc(C(F)(F)F)cc2)CC[N+]([O-])(Cc2ccc(Oc3ncccn3)cc2)CC1 (stereo not shown) [Compound 466]
Percent Mortality: 17%
Percent Growth Inhibition: 100%

[N-]=[N+]=NCC1(C(c2ccc(C(F)(F)F)cc2)c2ccc(C(F)(F)F)cc2)CC[N+]([O-])(Cc2ccc(OCC3CC3)cc2)CC1 (stereo not shown) [Compound 467]
Percent Mortality: 50%
Percent Growth Inhibition: 100%

CC(=O)OCC1(C(c2ccc(C(F)(F)F)cc2)c2ccc(C(F)(F)F)cc2)CC[N+]([O-])(Cc2ccc(Oc3ncccn3)cc2)CC1 (stereo not shown) [Compound 468]
Percent Mortality: 17%
Percent Growth Inhibition: 100%

OC(COc1ccc(Cl)cc1)CN1CCC(O)(C(c2ccc(OC(F)(F)F)cc2)c2ccc(OC(F)(F)F)cc2)CC1 (stereo not shown) [Compound 470]
Percent Mortality: 17%
Percent Growth Inhibition: 89%

OC(COc1cccc(Cl)c1)CN1CCC(O)(C(c2ccc(OC(F)(F)F)cc2)c2ccc(OC(F)(F)F)cc2)CC1 (stereo not shown) [Compound 471]
Percent Mortality: 0%
Percent Growth Inhibition: 82%

OC(COc1ccccc1Cl)CN1CCC(O)(C(c2ccc(OC(F)(F)F)cc2)c2ccc(OC(F)(F)F)cc2)CC1 (stereo not shown) [Compound 472]
Percent Mortality: 17%
Percent Growth Inhibition: 93%

OC1(C(c2ccc(OC(F)(F)F)cc2)c2ccc(OC(F)(F)F)cc2)CCN(CCCOc2ccc(Cl)cc2)CC1 [Compound 473]
Percent Mortality: 100%
Percent Growth Inhibition: 100%

OC1(C(c2ccc(OC(F)(F)F)cc2)c2ccc(OC(F)(F)F)cc2)CCN(CCc2ccc(Cl)cc2)CC1 [Compound 474]
Percent Mortality: 83%
Percent Growth Inhibition: 100%

OC1(C(c2ccc(OC(F)(F)F)cc2)c2ccc(OC(F)(F)F)cc2)CCN(CCOc2ccc(Cl)cc2)CC1 [Compound 475]
Percent Mortality: 100%
Percent Growth Inhibition: 100%

OC1(C(c2ccc(OC(F)(F)F)cc2)c2ccc(OC(F)(F)F)cc2)CCN(CCCCOc2ccc(Cl)cc2)CC1 [Compound 476]
Percent Mortality: 67%
Percent Growth Inhibition: 100%

OC1(C(c2ccc(OC(F)(F)F)cc2)c2ccc(OC(F)(F)F)cc2)CCN(CCOc2ccc(Br)cc2)CC1 [Compound 477]
Percent Mortality: 100%
Percent Growth Inhibition: 100%

[O-][N+]1(CCOc2ccc(Cl)cc2)CCC(O)(C(c2ccc(OC(F)(F)F)cc2)c2ccc(OC(F)(F)F)cc2)CC1 (stereo not shown) [Compound 478]
Percent Mortality: 100%
Percent Growth Inhibition: 100%

[O-][N+]1(CCc2ccc(Cl)cc2)CCC(O)(C(c2ccc(OC(F)(F)F)cc2)c2ccc(OC(F)(F)F)cc2)CC1 (stereo not shown) [Compound 479]
Percent Mortality: 100%
Percent Growth Inhibition: 100%

[O-][N+]1(CCCCOc2ccc(Cl)cc2)CCC(O)(C(c2ccc(OC(F)(F)F)cc2)c2ccc(OC(F)(F)F)cc2)CC1 (stereo not shown) [Compound 480]
Percent Mortality: 100%
Percent Growth Inhibition: 100%

[O-][N+]1(CCCOc2ccc(Cl)cc2)CCC(O)(C(c2ccc(OC(F)(F)F)cc2)c2ccc(OC(F)(F)F)cc2)CC1 (stereo not shown) [Compound 481]
Percent Mortality: 100%
Percent Growth Inhibition: 100%

[O-][N+]1(CCOc2ccc(Br)cc2)CCC(O)(C(c2ccc(OC(F)(F)F)cc2)c2ccc(OC(F)(F)F)cc2)CC1 (stereo not shown) [Compound 482]
Percent Mortality: 100%
Percent Growth Inhibition: 100%

CCON=Cc1ccc(C[N+]2(O)CCC(O)(C(c3ccc(OC(F)(F)F)cc3)c3ccc(OC(F)(F)F)cc3)CC2)cc1.O=S(=O)([O-])CCCO (stereo not shown) [Compound 483]
Percent Mortality: 100%
Percent Growth Inhibition: 100%

CCOC(C)C(=O)[O-].CCON=Cc1ccc(C[N+]2(O)CCC(O)(C(c3ccc(OC(F)(F)F)cc3)c3ccc(OC(F)(F)F)cc3)CC2)cc1 (stereo not shown) [Compound 484]
Percent Mortality: 100%
Percent Growth Inhibition: 100%

CCCCC(CC)C(=O)[O-].OC1(C(c2ccc(OC(F)(F)F)cc2)c2ccc(OC(F)(F)F)cc2)CC[N+](O)(Cc2ccc(Oc3ccc(Cl)nn3)cc2)CC1 (stereo not shown) [Compound 485]
Percent Mortality: 100%
Percent Growth Inhibition: 100%

CCCCC(CC)C(=O)[O-].CCON=Cc1ccc(C[N+]2(O)CCC(O)(C(c3ccc(OC(F)(F)F)cc3)c3ccc(OC(F)(F)F)cc3)CC2)cc1 (stereo not shown) [Compound 486]
Percent Mortality: 100%
Percent Growth Inhibition: 100%

CCON=Cc1ccc(C[N+]2(O)CCC(O)(C(c3ccc(OC(F)(F)F)cc3)c3ccc(OC(F)(F)F)cc3)CC2)cc1.O=S(=O)([O-])C(F)(F)C(F)(F)C(F)(F)C(F)(F)F (stereo not shown) [Compound 487]
Percent Mortality: 100%
Percent Growth Inhibition: 100%

O=C(O)CC(O)(CC(=O)O)C(=O)[O-].OC1(C(c2ccc(C(F)(F)F)cc2)c2ccc(C(F)(F)F)cc2)CC[N+](O)(Cc2ccc(Oc3ccc(Cl)nn3)cc2)CC1 (stereo not shown) [Compound 488]
Percent Mortality: 100%
Percent Growth Inhibition: 100%
